Measured values taken from ChEMBL document CHEMBL1141454, “Structural and functional basis of cyclooxygenase inhibition” (J Med Chem, 2007).

Tests used:
[1] = Inhibition of mouse COX2 S530A mutant
[2] = Inhibition of mouse COX2 Y355F mutant
[3] = Inhibition of mouse COX2 R120A mutant
[4] = molecular target: Prostaglandin G/H synthase 1 (Homo sapiens, UniProt P23219)
[5] = species: Mus musculus; experiment: Inhibition of mouse COX2 V349A mutant
[6] = species: Mus musculus; experiment: Inhibition of mouse COX2 V349L mutant
[7] = Selectivity for COX1 over COX2
[8] = Inhibition of cyclooxygenase
[9] = molecular target: T1, Prostaglandin G/H synthase 2 (Homo sapiens, UniProt P35354)
T1 sequence (P35354 whole entry): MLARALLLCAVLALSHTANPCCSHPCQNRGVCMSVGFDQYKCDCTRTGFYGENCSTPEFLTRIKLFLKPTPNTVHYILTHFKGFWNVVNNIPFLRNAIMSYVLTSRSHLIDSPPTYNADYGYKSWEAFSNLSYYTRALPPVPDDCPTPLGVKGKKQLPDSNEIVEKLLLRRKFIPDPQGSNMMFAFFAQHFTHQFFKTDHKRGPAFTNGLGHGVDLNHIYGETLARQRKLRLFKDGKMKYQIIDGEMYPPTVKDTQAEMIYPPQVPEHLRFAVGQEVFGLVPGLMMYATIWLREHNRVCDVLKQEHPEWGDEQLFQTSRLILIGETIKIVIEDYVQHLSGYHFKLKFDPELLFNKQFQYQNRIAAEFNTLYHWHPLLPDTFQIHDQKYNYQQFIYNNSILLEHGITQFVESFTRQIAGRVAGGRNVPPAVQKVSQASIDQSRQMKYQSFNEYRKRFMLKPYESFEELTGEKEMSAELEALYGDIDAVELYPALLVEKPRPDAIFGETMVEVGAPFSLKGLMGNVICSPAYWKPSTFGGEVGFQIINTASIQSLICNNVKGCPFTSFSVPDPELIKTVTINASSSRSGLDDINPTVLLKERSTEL

Sequence of Prostaglandin G/H synthase 1 (P23219 whole entry): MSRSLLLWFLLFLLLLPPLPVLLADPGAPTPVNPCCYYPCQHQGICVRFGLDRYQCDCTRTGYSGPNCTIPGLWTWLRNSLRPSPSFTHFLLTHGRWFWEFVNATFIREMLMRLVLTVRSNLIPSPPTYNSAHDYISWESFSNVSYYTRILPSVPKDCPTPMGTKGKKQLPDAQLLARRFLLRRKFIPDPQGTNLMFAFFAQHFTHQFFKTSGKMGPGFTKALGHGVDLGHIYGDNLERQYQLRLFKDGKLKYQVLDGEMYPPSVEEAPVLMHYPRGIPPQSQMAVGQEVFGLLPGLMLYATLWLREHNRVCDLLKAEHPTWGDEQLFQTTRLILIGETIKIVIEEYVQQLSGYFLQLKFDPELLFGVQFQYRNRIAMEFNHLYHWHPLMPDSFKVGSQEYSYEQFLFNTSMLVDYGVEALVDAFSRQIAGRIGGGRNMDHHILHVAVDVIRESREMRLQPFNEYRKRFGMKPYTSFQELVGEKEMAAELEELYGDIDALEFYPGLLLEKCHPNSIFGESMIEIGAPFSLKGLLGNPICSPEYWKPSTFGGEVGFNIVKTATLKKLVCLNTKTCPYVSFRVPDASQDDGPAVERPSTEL

| IC50 [4] [µM] | IC50 [9] [µM] | Compound | also measured |
| --- | --- | --- | --- |
| > 66 |  | COc1ccc2c(c1)c(CCNC(=O)c1ccc(Cl)cc1)c(C)n2Cc1ccc(Br)cc1 |  |
| > 66 |  | COc1ccc2c(c1)c(CC(=O)NCCc1ccccc1)c(C)n2C(=O)c1ccc(Cl)cc1 |  |
| > 66 |  | COc1ccc2c(c1)c(CCOC(=O)c1ccc(Cl)cc1)c(C)n2Cc1ccc(Br)cc1 |  |

Further lines, the compound ahead of its results:

| Compound | IC50 [4] [µM] | IC50 [9] [µM] | also measured |
| --- | --- | --- | --- |
| O=C(O)Cc1ccccc1Nc1c(Cl)cccc1Cl [DICLOFENAC] |  |  | IC50 [1]: > 50 µM; IC50 [2]: 0.137 µM; IC50 [3]: 0.257 µM |
| COc1ccc2c(c1)c(CC(=O)O)c(C)n2C(=O)c1ccc(Cl)cc1 |  |  | Activity [5]: 0.08 µM; Activity [6]: 4 µM |
| CC(=O)Oc1ccccc1C(=O)O [ASPIRIN] |  |  | Selectivity ratio [7]: 10; Ki [8]: 20000 µM |
| COc1ccc2c(c1)c(CC(=O)OCCc1ccccc1)c(C)n2C(=O)c1ccc(Cl)cc1 | > 66 |  |  |
| C/C(=N/OCc1ccccc1Nc1c(Cl)cccc1Cl)C(=O)O | > 1 | 0.1 |  |
| Cc1ccc(Nc2c(F)cccc2Cl)c(CC(=O)O)c1 [LUMIRACOXIB] | > 10 | 0.007 |  |
| CCOc1cccc(OCC)c1-c1ccc(C(C)C(=O)O)cc1F (configuration not stated) | 7.7 | 0.1 |  |
